One series has as its system mice. Briefly: T cell epitope mapping: antibody production after vaccination with DCs treated with Abeta fragments (FIG. 11). The following applies: two vaccinations with DCs, 1×10^6 cells/mice, treated with 20 μg/million cell; ELISA 1:800 dilutions. It is filed as in vivo, mouse. The source says:
FIG. 11. Mapping result of T cell epitope with Abeta fragment carrying Dutch mutation by ELISA.

Series [1] has as its system patients aged 50 to 85 years with probable AD. The following applies: with adjuvant QS-21 and polysorbate 80, cited from earlier work.
In series [2] the test system is BALB/c mice. Briefly: Mouse anti-Abeta IgG isotyping (Th1/Th2 response). It is filed as in vivo. The following applies: n=4; for Anti-Abeta antibody isotype: peptide vaccination without adjuvant. The source says: To further confirm the inflammation issue, we detected type one and type two T cell response by using the mouse anti-Abeta IgG isotyping method. […] (see FIG. 10).

Series [3] has as its system BALB/c mice. Briefly: Antibody titer by ELISA after adjuvant-free subcutaneous Abeta peptide vaccination. It is filed as in vivo, mouse. To be noted: boost 50 ug/mice six months post third inoculation; ELISA 10 days later; no adjuvant. On the procedure:
Peptides: Aβ 1-42 and related peptides were obtained from Synpep (Dublin, Calif.). Peptides for vaccination were reconstituted to 10 mg/ml in DMSO and further diluted to 2 mg/ml with phosphate buffered saline.
Mice: 10 weeks old female BALB/c mice from the Jackson laboratories were housed in Varian standard cages including amber igloos and vaccinated when 14 weeks old. A total of 28 mice were grouped into 7 vaccination groups each with four animals. Differently mutated Aβ1-42 peptides were used for each group and a 1×PBS (also containing 10% DMSO) as a control group. Initial subcutaneous vaccination began at 100 μg peptide in 100 μl VEHICLE and subsequent booster vaccinations proceeded at 100 μg peptide (100 μl) at two weeks intervals. A third inoculation was carried out with 50 μg peptide in 100 μl.
Bleeding and plasma collection procedures: 10 days after injection, mice were bled by submandibular phlebotomy into EDTA tubes, and plasma was separated by centrifugation at 1500 g for 20 minutes with StatSampler from StatSpin (MA). Plasma were isolated by centrifugation and frozen at −80° C.
Antibody titer determination: Anti-amyloid beta antibody (6E10) was purchased from Signet Laboratories (Dedham, Mass.) and used as positive control. […] Plates were read at 450 nm/630 nm, and samples with readings three times higher than controls were considered positive. […]

For “DAEFRHDSGYEVHHQKLVFFAQDVGSNKGAIIGLM [Abeta 1-35 carrying Dutch mutation, Aβ 1-35 with Dutch mutation]”, the Antibody production result in the series on mice is “antibody production”. With “Abeta 1-25: Abeta fragment 1-25 [reference compound]”, the Antibody production entry with mice is recorded as “no antibody production”. With “AN1792: wild type amyloid beta 1-42 peptide used as a vaccine with adjuvant QS-21 and polysorbate 80”, the “Occurrence of meningoencephalitis, subset of patients” value in series [1] (Phase II) was 6%. Moreover, the “Clinical benefits in follow up study of vaccinated patients” value in series [1] was “reduced AD-like pathology and improved cognition”. In the case of “PFM: Abeta 1-42 with Flemish mutation, aa16-24 KLVFFGEDV”, in the series on BALB/c mice [2], the Anti-Abeta antibody isotype result is “IgG2a response”. As for “PDM: Abeta 1-42 with Dutch mutation, aa16-24 KLVFFAQDV”, the “Long term antibody and memory response after boost” value with BALB/c mice [3] was “induce long term antibody response and with a good memory response”. The “Th response by antibody isotyping with adjuvant” value in the series with BALB/c mice [2] (adjuvant MPL treated vaccine compared to no adjuvant) was “adjuvant clearly induces a Th1 response”. With “PFDM: Abeta 1-42 with both Flemish and Dutch mutation, aa16-24 KLVFFGQDV”, the Anti-Abeta antibody isotype entry with BALB/c mice [2] is “IgG2a response”.
